From US9932335B2 (priority 2013, dated 2018)
Positions count from the first letter of the chain named. Where two headings read alike, the source gives them in different places.

Columns and labels:
M1 receptor = target: T1, M1 receptor (Rattus norvegicus, UniProt P08482); assay: M1 PAM assay (FLIPR intracellular calcium), rat; assay type: cell-based
T1 construct: expressed in transfected cells
T1 sequence (P08482 1-460): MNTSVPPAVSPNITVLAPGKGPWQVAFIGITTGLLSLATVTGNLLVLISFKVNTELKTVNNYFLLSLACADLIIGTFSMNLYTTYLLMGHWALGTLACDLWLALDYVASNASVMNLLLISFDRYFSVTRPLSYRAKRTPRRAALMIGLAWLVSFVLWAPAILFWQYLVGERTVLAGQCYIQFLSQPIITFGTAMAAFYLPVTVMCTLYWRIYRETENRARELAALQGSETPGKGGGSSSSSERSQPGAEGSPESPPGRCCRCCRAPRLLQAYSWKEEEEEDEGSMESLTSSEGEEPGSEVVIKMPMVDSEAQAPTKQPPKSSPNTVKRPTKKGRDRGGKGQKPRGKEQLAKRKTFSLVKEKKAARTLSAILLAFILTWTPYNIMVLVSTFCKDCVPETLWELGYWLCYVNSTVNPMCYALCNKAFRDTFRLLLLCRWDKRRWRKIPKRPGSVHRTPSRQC

human M1 = target: T2, human M1 (Homo sapiens, UniProt P11229); assay: M1 PAM assay (FLIPR intracellular calcium, CHO human M1); assay type: cell-based
T2 construct: expressed in transfected cells; host or cells: CHO cells
T2 sequence (P11229 1-460): T1 sequence (P08482 1-460) with V5A, S254T, S309P, K320R, G337A, V413I
Procedure: The assay study the effect of several concentrations of test compounds on basal or acetylcholine-stimulated Ca^2+ levels using FLIPR. CHO human M1 are plated the day before the experiments at 2×10^5 cells/ml in PDL BioCoat 96 well black/clear plate (Becton 35 4640). The cells are grown at 37° C. and 5% CO2 in the following medium: F12 Nut Mix (Gibco 21765), 10% FCS heat inactivated (GIBCO 16000-044), 1% Pen Strep (Gibco, 15140) and 200 μg/ml Geneticin (Gibco 11811). On the day of the experiment, the medium was removed and replaced by 100 μl of dye loading buffer containing Hanks Balanced Salt solution (HBSS, 14065-049, Gibco) with 20 mM HEPES (Gibco 15630-056), 2 mM Probenicid (Sigma P8761), […] (Molecular Probes F-14202), 10% Pluronic acid Molecular Probes P-3000) pH=7.4 and incubated at 37° C. After 60 minutes extracellular dye was removed and the cells were washed five times with FLIPR buffer containing HBSS (Gibco 14065-049) with 20 mM HEPES (Gibco, 15630-056), 2 mM Probenicid (Sigma P8761) pre-warmed at 37° C. using and Ebml cell washer leaving 100 μl of FLIPR buffer in each well. The cell plate and the diluted compounds (1% DMSO final concentration) are placed on the platform of the FLIPR and the door closed. A signal test to check background fluorescence and basal fluorescence signal is performed. Laser intensity is adjusted if necessary. Two minutes preincubation with the diluted test compounds is provide to determine any agonist activity on the M1 receptor by comparison to 30 nM Acetylcholine control. In order to determine any modulator activity the diluted compounds were added to cells and after two minutes preincubation, the EC20 of acetylcholine is added followed by another two minutes preincubation before the measurement of intracellular Ca^2+ with a FLIPR (Molecular Devices).

[1] = human M1 in CHO cells, modulator activity with EC20 of acetylcholine, FLIPR Ca2+, read-out: EC50 h PAM

Row | SMILES | EC50 (M1 receptor) [µM] | EC50 (human M1) [µM] | EC50 (human M1; [1]) [µM]
1 | Cn1cc(-c2ccc(Cn3cc(C(=O)N[C@H]4CCOC[C@@H]4O)c4ncccc43)c(F)c2)cn1 (racemic) [Example 4, 1-(2-fluoro-4-(1-methyl-1H-pyrazol-4-yl)benzyl)-N-((3RS,4SR)-3-hydroxytetrahydro-2H-pyran-4-yl)-1H-pyrrolo[3,2-b]pyridine-3-carboxamide] | 0.0587 | 0.0286 | 
2 | COCC(O)CNC(=O)c1cn(Cc2ccc(-c3cnn(C)c3)cc2F)c2cccnc12 (racemic) [Example 7, rac-1-[2-Fluoro-4-(1-methyl-1H-pyrazol-4-yl)-benzyl]-1H-pyrrolo[3,2-b]pyridine-3-carboxylic acid (2-hydroxy-3-methoxy-propyl)-amide] |  |  | 0.232
3 | Cn1cc(-c2ccc(Cn3cc(C(=O)N[C@H]4CCCC[C@H]4O)c4ncccc43)c(F)c2)cn1 (racemic) [Example 37] | 0.123 | 0.162 | 
4 | Cn1cc(-c2ccc(Cn3cc(C(=O)N[C@H]4CCCC[C@]4(C)O)c4ncccc43)c(F)c2)cn1 (racemic) [Example 39, 1-(2-fluoro-4-(1-methyl-1H-pyrazol-4-yl)benzyl)-N-((1SR,2SR)-2-hydroxy-2-methylcyclohexyl)-1H-pyrrolo[3,2-b]pyridine-3-carboxamide] | 0.264 | 0.177 | 
5 | Cn1cc(-c2ccc(Cn3cc(C(=O)N[C@H]4CCCC[C@@]4(C)O)c4ncccc43)c(F)c2)cn1 (racemic) [Example 40, 1-(2-fluoro-4-(1-methyl-1H-pyrazol-4-yl)benzyl)-N-((1SR,2RS)-2-hydroxy-2-methylcyclohexyl)-1H-pyrrolo[3,2-b]pyridine-3-carboxamide] | 0.0632 | 0.0479 | 
6 | Cn1cc(-c2ccc(Cn3cc(C(=O)N[C@H]4CCOC[C@@H]4O)c4ncccc43)cn2)cn1 (racemic) [Example 57, N-((3RS,4SR)-3-hydroxytetrahydro-2H-pyran-4-yl)-1-((6-(1-methyl-1H-pyrazol-4-yl)pyridin-3-yl)methyl)-1H-pyrrolo[3,2-b]pyridine-3-carboxamide] | 0.133 | 0.143 | 
7 | C[C@@H](O)CNC(=O)c1cn(Cc2ccc(-c3cnn(C)c3)cc2F)c2cccnc12 [Example 9] |  |  | 0.459
8 | C[C@H](O)CNC(=O)c1cn(Cc2ccc(-c3cnn(C)c3)cc2F)c2cccnc12 [Example 10] |  |  | 0.477
9 | Cn1cc(-c2ccc(Cn3cc(C(=O)NC[C@@H](O)CO)c4ncccc43)c(F)c2)cn1 [Example 15, 1-[2-Fluoro-4-(1-methyl-1H-pyrazol-4-yl)-benzyl]-1H-pyrrolo[3,2-b]pyridine-3-carboxylic acid ((R)-2,3-dihydroxy-propyl)-amide] |  |  | 0.333
10 | Cn1cc(-c2ccc(Cn3cc(C(=O)N[C@@H]4CCC[C@H]4O)c4ncccc43)c(F)c2)cn1 [Example 16, 1-[2-Fluoro-4-(1-methyl-1H-pyrazol-4-yl)-benzyl]-1H-pyrrolo[3,2-b]pyridine-3-carboxylic acid ((1R,2R)-2-hydroxy-cyclopentyl)-amide] |  | 0.397 | 
11 | CC(C)[C@H](CO)NC(=O)c1cn(Cc2ccc(-c3cnn(C)c3)cc2F)c2cccnc12 [Example 21, 1-[2-Fluoro-4-(1-methyl-1H-pyrazol-4-yl)-benzyl]-1H-pyrrolo[3,2-b]pyridine-3-carboxylic acid ((R)-1-hydroxymethyl-2-methyl-propyl)-amide] |  | 0.201 | 
12 | CCC[C@@H](CO)NC(=O)c1cn(Cc2ccc(-c3cnn(C)c3)cc2F)c2cccnc12 [Example 23, 1-[2-Fluoro-4-(1-methyl-1H-pyrazol-4-yl)-benzyl]-1H-pyrrolo[3,2-b]pyridine-3-carboxylic acid ((S)-1-hydroxymethyl-butyl)-amide] |  | 0.205 | 
13 | CC(C)C[C@@H](CO)NC(=O)c1cn(Cc2ccc(-c3cnn(C)c3)cc2F)c2cccnc12 [Example 25, 1-[2-Fluoro-4-(1-methyl-1H-pyrazol-4-yl)-benzyl]-1H-pyrrolo[3,2-b]pyridine-3-carboxylic acid ((S)-1-hydroxymethyl-3-methyl-butyl)-amide] |  |  | 0.233
14 | Cn1cc(-c2ccc(Cn3cc(C(=O)Nc4ccccc4CO)c4ncccc43)c(F)c2)cn1 [Example 29, 1-[2-Fluoro-4-(1-methyl-1H-pyrazol-4-yl)-benzyl]-1H-pyrrolo[3,2-b]pyridine-3-carboxylic acid (2-hydroxymethyl-phenyl)-amide] |  |  | 0.298
15 | Cn1cc(-c2ccc(Cn3cc(C(=O)NCC(O)c4ccccc4)c4ncccc43)c(F)c2)cn1 (stereo not shown) [Example 31, 1-[2-Fluoro-4-(1-methyl-1H-pyrazol-4-yl)-benzyl]-1H-pyrrolo[3,2-b]pyridine-3-carboxylic acid (2-hydroxy-2-phenyl-ethyl)-amide] |  |  | 0.429
16 | Cc1ccc(NC(=O)c2cn(Cc3ccc(-c4cnn(C)c4)cc3F)c3cccnc23)c(CO)c1 [Example 33, 1-[2-Fluoro-4-(1-methyl-1H-pyrazol-4-yl)-benzyl]-1H-pyrrolo[3,2-b]pyridine-3-carboxylic acid (2-hydroxymethyl-4-methyl-phenyl)-amide] |  |  | 0.282
17 | Cc1cccnc1NC(=O)c1cn(Cc2ccc(-c3cnn(C)c3)cc2F)c2cccnc12 [Example 35, 1-[2-Fluoro-4-(1-methyl-1H-pyrazol-4-yl)-benzyl]-1H-pyrrolo[3,2-b]pyridine-3-carboxylic acid (3-methyl-pyridin-2-yl)-amide] |  |  | 0.32
18 | CO[C@H]1CCCC[C@@H]1NC(=O)c1cn(Cc2ccc(-c3cnn(C)c3)cc2F)c2cccnc12 [Example 38, 1-[2-Fluoro-4-(1-methyl-1H-pyrazol-4-yl)-benzyl]-1H-pyrrolo[3,2-b]pyridine-3-carboxylic acid ((1S,2S)-2-methoxy-cyclohexyl)-amide] |  |  | 0.369
19 | Cn1cc(-c2ccc(Cn3cc(C(=O)N[C@@H]4COCC[C@H]4O)c4ncccc43)c(F)c2)cn1 [Example 42, 1-(2-fluoro-4-(1-methyl-1H-pyrazol-4-yl)benzyl)-N-((3R,4R)-4-hydroxytetrahydro-2H-pyran-3-yl)-1H-pyrrolo[3,2-b]pyridine-3-carboxamide] |  | 0.487 | 
20 | O=C(N[C@H]1CCCC[C@@H]1O)c1cn(Cc2ccc(Br)cc2)c2cccnc12 [Example 50, 1-(4-bromobenzyl)-N-((1S,2S)-2-hydroxycyclohexyl)-1H-pyrrolo[3,2-b]pyridine-3-carboxamide] |  |  | 0.319
21 | Cn1cc(-c2cccc(Cn3cc(C(=O)N[C@H]4CCCC[C@@H]4O)c4ncccc43)c2)cn1 [Example 51, N-((1S,2S)-2-hydroxycyclohexyl)-1-(3-(1-methyl-1H-pyrazol-4-yl)benzyl)-1H-pyrrolo[3,2-b]pyridine-3-carboxamide] |  | 0.443 | 
22 | N#Cc1ccc(Cn2cc(C(=O)N[C@H]3CCCC[C@@H]3O)c3ncccc32)c(F)c1 [Example 53, 1-(4-cyano-2-fluorobenzyl)-N-((1S,2S)-2-hydroxycyclohexyl)-1H-pyrrolo[3,2-b]pyridine-3-carboxamide] |  | 0.321 | 
23 | O=C(N[C@H]1CCCC[C@@H]1O)c1cn(Cc2ccc(Cl)cc2)c2cccnc12 [Example 54, 1-(4-chlorobenzyl)-N-((1S,2S)-2-hydroxycyclohexyl)-1H-pyrrolo[3,2-b]pyridine-3-carboxamide] |  | 0.264 | 
